“Also recorded” adds a separate entry of the source. Read-outs that look alike come from different tables or passages of the source.
Tests used:
[1] = Labeling stability in murine serum (SDS-PAGE); format: in vitro ADME; settings: 37 °C, 1 h
Procedure: The labeling stability was evaluated using SDS-PAGE analysis (200 V constant) on NuPAGE 4–12% bis-Tris gels (Invitrogen) with the aims to check the release of fluorine-18, transchelation of [^18F]AlF to serum proteins, and cleavage of labeled protein by peptidases. […] After incubation, the samples were treated with NuPAGE® LDS Sample Buffer according to the manufacturer’s instructions and finally 0.05 nmol of sample loaded on the gel. Na^18F-sodium fluoride was loaded in a separate lane as a low molecular weight internal reference.

[2] = Biodistribution and in vivo binding specificity in NMRI mice; settings: mouse, iv, total radioactivity, male NMRI mice, 45 pmol i.v., 1 h p.i.
Excerpt: (§1) All animal studies were planned and performed in accordance with the national legislation on the protection of laboratory animals and the Ethic Committee for Animal Research of the Uppsala University approved the study plans. Randomly divided groups of 4 mice per data point were used in all experiments. […] BALB/c nu/nu male mice with PC-3 xenografts (weight 20±1 g at the time of the experiment) were used for tumor targeting and imaging studies. The tumors were grafted by subcutaneous injection of PC-3 cells (10^7 cells/mouse) into the right hind legs 3 weeks before the experiment. The average tumor size was 0.42±0.05 g at the time of the experiment.
(§2) The mice were euthanized 1 h post-injection (p.i.) by intraperitoneal administration of Ketalar-Rompun solution (10 mg/mL Ketalar and 1 mg/mL Rompun; 20 µL of solution per gram of body weight). Blood samples were collected by cardiac puncture. The organs of interest were collected, weighed and their radioactivity was measured. The organ uptake values were expressed as a percentage of the injected dose per gram of tissue (%ID/g) except for the gastrointestinal tract (GI) and carcass, which were expressed as %ID per whole sample.

[3] = biological target: T1, murine GRPRs (Mus musculus, UniProt P21729); experiment: as above; settings: iv, total radioactivity, male NMRI mice, 45 pmol i.v., 1 h p.i.
T1 construct: from tissue; host or cells: organs of male NMRI mice, in vivo (pancreas, stomach, small intestine and others)
Excerpt: as §1, §2

[4] = Biodistribution and in vivo binding specificity in PC-3 tumor-bearing BALB/c nu/nu mice; settings: mouse, iv, total radioactivity, male BALB/c nu/nu mice with PC-3 xenografts, 45 pmol i.v.; for tissue uptake at 1 h / tissue uptake at 6 h / tissue uptake at 3 h: male, BALB/c nu/nu; for tissue uptake at 1 h / tissue uptake dose at 1 h: 1 h p.i.; for tissue uptake at 6 h / tissue uptake dose at 6 h: 6 h p.i.; for tissue uptake at 3 h / tissue uptake dose at 3 h: 3 h p.i.
Excerpt: as §1
(§3) The mice were sacrificed at 1, 3 and 6 h p.i. to determine the uptake in tumors and other receptor-positive organs. A group of animals was co-injected with an excess of non-labeled peptide (20 nmol) and sacrificed 1 h p.i. The blood and other organs of interest were collected and treated as described above.

[5] = test system: PC-3 xenografts; experiment: as above
Excerpt: as §1, §3

[6] = carcass (whole sample), read-out: Carcass uptake
[7] = carcass (whole sample), blocked (co-injected 20 nmol non-labeled peptide), read-out: Carcass uptake
[8] = gastrointestinal tract (whole sample), read-out: GI tract uptake
[9] = gastrointestinal tract (whole sample), blocked (co-injected 20 nmol non-labeled peptide), read-out: GI tract uptake
[10] = blood, blocked (co-injected 20 nmol non-labeled peptide), read-out: Blood uptake
[11] = bone, blocked (co-injected 20 nmol non-labeled peptide), read-out: Bone uptake
[12] = kidney, blocked (co-injected 20 nmol non-labeled peptide), read-out: Kidney uptake
[13] = liver, blocked (co-injected 20 nmol non-labeled peptide), read-out: Liver uptake
[14] = lung, blocked (co-injected 20 nmol non-labeled peptide), read-out: Lung uptake
[15] = muscle, blocked (co-injected 20 nmol non-labeled peptide), read-out: Muscle uptake
[16] = pancreas, blocked (co-injected 20 nmol non-labeled peptide), read-out: Pancreas uptake
[17] = small intestine, blocked (co-injected 20 nmol non-labeled peptide), read-out: Small intestine uptake
[18] = spleen, blocked (co-injected 20 nmol non-labeled peptide), read-out: Spleen uptake
[19] = stomach, blocked (co-injected 20 nmol non-labeled peptide), read-out: Stomach uptake
[20] = blood, 45 pmol, read-out: Blood uptake
[21] = bone, 45 pmol, read-out: Bone uptake
[22] = kidney, 45 pmol, read-out: Kidney uptake
[23] = liver, 45 pmol, read-out: Liver uptake
[24] = lung, 45 pmol, read-out: Lung uptake
[25] = muscle, 45 pmol, read-out: Muscle uptake
[26] = pancreas, 45 pmol, read-out: Pancreas uptake
[27] = small intestine, 45 pmol, read-out: Small intestine uptake
[28] = spleen, 45 pmol, read-out: Spleen uptake
[29] = stomach, 45 pmol, read-out: Stomach uptake
[30] = tumor (PC-3 xenograft), 45 pmol, read-out: Tumor uptake
[31] = male BALB/c nu/nu mice with PC-3 xenografts, 45 pmol i.v., 3 h p.i.

T1 sequence (P21729 whole entry): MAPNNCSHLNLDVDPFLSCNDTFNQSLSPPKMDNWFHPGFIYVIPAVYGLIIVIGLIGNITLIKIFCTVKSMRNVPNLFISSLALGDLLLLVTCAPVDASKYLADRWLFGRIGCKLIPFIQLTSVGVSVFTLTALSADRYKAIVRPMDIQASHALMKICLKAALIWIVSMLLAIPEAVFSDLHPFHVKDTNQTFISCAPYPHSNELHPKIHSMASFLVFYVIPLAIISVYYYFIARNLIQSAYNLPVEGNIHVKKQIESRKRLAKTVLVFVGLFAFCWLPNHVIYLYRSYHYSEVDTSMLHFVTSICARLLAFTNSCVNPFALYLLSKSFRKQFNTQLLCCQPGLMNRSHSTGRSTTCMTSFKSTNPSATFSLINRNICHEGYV

SMILES: CC(C)C[C@H](NC(=O)C[C@H](O)[C@H](CC(C)C)NC(=O)[C@H](Cc1c[nH]cn1)NC(=O)CNC(=O)[C@@H](NC(=O)[C@H](C)NC(=O)[C@H](Cc1c[nH]c2ccccc12)NC(=O)[C@H](CCC(N)=O)NC(=O)[C@@H](Cc1ccccc1)NC(=O)COCCOCCNC(=O)CN1CCN(CC(=O)O)CCN(CC(=O)O)CC1)C(C)C)C(N)=O [[^18F]AlF-NOTA-P2-RM26]
- stability in murine serum [1]: stable; also recorded: single radioactivity peak
- tissue uptake dose at 1 h [2, 6]: 5 ± 2 %ID
- tissue uptake dose at 1 h [2, 7]: 5 ± 1 %ID
- tissue uptake dose at 1 h [2, 8]: 11 ± 3 %ID
- tissue uptake dose at 1 h [2, 9]: 5 ± 1 %ID
- tissue uptake at 1 h ([3]; blood, read-out: Blood uptake): 0.3 ± 0.1 %ID/g
- tissue uptake at 1 h [3, 10]: 0.3 ± 0.1 %ID/g
- tissue uptake at 1 h ([3]; bone, read-out: Bone uptake): 0.3 ± 0.2 %ID/g
- tissue uptake at 1 h [3, 11]: 0.2 ± 0.1 %ID/g
- tissue uptake at 1 h ([3]; kidney, read-out: Kidney uptake): 2.8 ± 0.5 %ID/g
- tissue uptake at 1 h [3, 12]: 3.4 ± 0.8 %ID/g
- tissue uptake at 1 h ([3]; liver, read-out: Liver uptake): 1.2 ± 0.3 %ID/g
- tissue uptake at 1 h [3, 13]: 1.4 ± 0.4 %ID/g
- tissue uptake at 1 h ([3]; lung, read-out: Lung uptake): 0.3 ± 0.2 %ID/g
- tissue uptake at 1 h [3, 14]: 0.3 ± 0.1 %ID/g
- tissue uptake at 1 h ([3]; muscle, read-out: Muscle uptake): 0.09 ± 0.03 %ID/g
- tissue uptake at 1 h [3, 15]: 0.08 ± 0.03 %ID/g
- tissue uptake at 1 h ([3]; pancreas, read-out: Pancreas uptake): 14 ± 6 %ID/g
- tissue uptake at 1 h [3, 16]: 0.4 ± 0.1 %ID/g
- tissue uptake at 1 h ([3]; small intestine, read-out: Small intestine uptake): 4 ± 2 %ID/g
- tissue uptake at 1 h [3, 17]: 1.7 ± 0.7 %ID/g
- tissue uptake at 1 h ([3]; spleen, read-out: Spleen uptake): 0.6 ± 0.3 %ID/g
- tissue uptake at 1 h [3, 18]: 0.16 ± 0.08 %ID/g
- tissue uptake at 1 h ([3]; stomach, read-out: Stomach uptake): 2 ± 1 %ID/g
- tissue uptake at 1 h [3, 19]: 0.3 ± 0.1 %ID/g
- tissue uptake at 1 h [4, 20]: 0.48 ± 0.08 %ID/g
- tissue uptake at 6 h [4, 20]: 0.023 ± 0.001 %ID/g
- tissue uptake at 1 h [4, 10]: 0.4 ± 0.2 %ID/g
- tissue uptake at 1 h [4, 21]: 0.3 ± 0.08 %ID/g
- tissue uptake at 3 h [4, 21]: 0.17 ± 0.08 %ID/g
- tissue uptake at 6 h [4, 21]: 0.22 ± 0.08 %ID/g
- tissue uptake at 1 h [4, 11]: 0.2 ± 0.2 %ID/g
- tissue uptake at 1 h [4, 22]: 3.6 ± 0.3 %ID/g
- tissue uptake at 3 h [4, 22]: 1.74 ± 0.25 %ID/g
- tissue uptake at 6 h [4, 22]: 0.27 ± 0.06 %ID/g
- tissue uptake at 1 h [4, 12]: 3.9 ± 0.8 %ID/g
- tissue uptake at 1 h [4, 23]: 1.9 ± 0.4 %ID/g
- tissue uptake at 3 h [4, 23]: 0.45 ± 0.21 %ID/g
- tissue uptake at 6 h [4, 23]: 0.1 ± 0.02 %ID/g
- tissue uptake at 1 h [4, 13]: 1.6 ± 0.3 %ID/g
- tissue uptake at 1 h [4, 24]: 0.36 ± 0.06 %ID/g
- tissue uptake at 3 h [4, 24]: 0.2 ± 0.2 %ID/g
- tissue uptake at 6 h [4, 24]: 0.11 ± 0.08 %ID/g
- tissue uptake at 1 h [4, 14]: 0.4 ± 0.3 %ID/g
- tissue uptake at 1 h [4, 25]: 0.1 ± 0.03 %ID/g
- tissue uptake at 3 h [4, 25]: 0.03 ± 0.01 %ID/g
- tissue uptake at 6 h [4, 25]: 0.02 ± 0.01 %ID/g
- tissue uptake at 1 h [4, 15]: 0.09 ± 0.04 %ID/g
- tissue uptake at 1 h [4, 26]: 13 ± 2 %ID/g
- tissue uptake at 3 h [4, 26]: 2.7 ± 0.7 %ID/g
- tissue uptake at 1 h [4, 16]: 0.3 ± 0.2 %ID/g
- tissue uptake at 1 h [4, 27]: 4 ± 2 %ID/g
- tissue uptake at 3 h [4, 27]: 0.88 ± 0.39 %ID/g
- tissue uptake at 6 h [4, 27]: 0.13 ± 0.06 %ID/g
- tissue uptake at 1 h [4, 17]: 2.6 ± 0.9 %ID/g
- tissue uptake at 1 h [4, 28]: 1 ± 0.2 %ID/g
- tissue uptake at 3 h [4, 28]: 0.1 ± 0.03 %ID/g
- tissue uptake at 6 h [4, 28]: 0.15 ± 0.08 %ID/g
- tissue uptake at 1 h [4, 18]: 0.7 ± 0.2 %ID/g
- tissue uptake at 1 h [4, 29]: 2.4 ± 0.4 %ID/g
- tissue uptake at 3 h [4, 29]: 1.37 ± 0.35 %ID/g
- tissue uptake at 6 h [4, 29]: 0.33 ± 0.08 %ID/g
- tissue uptake at 1 h [4, 19]: 0.4 ± 0.1 %ID/g
- tissue uptake at 1 h [4, 30]: 6.3 ± 0.9 %ID/g
- tissue uptake at 3 h [4, 30]: 5.5 ± 0.7 %ID/g
- tissue uptake at 6 h [4, 30]: 2.3 ± 0.7 %ID/g
- tissue uptake at 1 h ([4]; tumor (PC-3 xenograft), blocked (co-injected 20 nmol non-labeled peptide), read-out: Tumor uptake): 0.8 ± 0.2 %ID/g
- tissue uptake dose at 1 h [4, 6]: 6 ± 1 %ID
- tissue uptake dose at 3 h [4, 6]: 3.8 ± 0.3 %ID
- tissue uptake dose at 6 h [4, 6]: 0.8 ± 0.2 %ID
- tissue uptake dose at 1 h [4, 7]: 4 ± 1 %ID
- tissue uptake dose at 1 h [4, 8]: 6.1 ± 0.8 %ID
- tissue uptake dose at 3 h [4, 8]: 5.2 ± 0.4 %ID
- tissue uptake dose at 6 h [4, 8]: 3 ± 0.1 %ID
- tissue uptake dose at 1 h [4, 9]: 4.8 ± 0.3 %ID
- decrease of tumor uptake by co-injection of non-labeled peptide ([5]; PC-3 xenografted mice, 1 h p.i., 20 nmol non-labeled peptide): more than 8 fold
- Stomach uptake [5, 31]: 1.4±0.4 %ID/g
- Tumor uptake [5, 31]: 5.53±0.75 %ID/g
